Measured values as given in patent publication US11661439B2, “Peptide hydrogels and use thereof” (The United States of America, as represented by the …, priority 2017, dated 2023).
Non-standard residues stand in square brackets, D forms with d. Residues, ends and D or L forms follow the SMILES beside them.

How the values were obtained:
[1] = Rheology of cell-encapsulating gels after 4 days of 3D culture; type: physicochemical; settings: 1000% strain for 30 s every 10 min
Excerpt: FIGS. 7A-7E. Three-dimensional culturing of HDFs. HDFs were 3D cultured with 0.5 wt % peptide hydrogels or 0.3 wt % collagen hydrogels with Essential 8 Medium. (7A) Live and dead cells were visualized on days 1, 4, and 7, using calcein AM and ethidium homodimer-1 staining, respectively (scale bar=100 μm). (7B) Cell growth was monitored by quantifying cell viability on days 1, 4, and 7. Data are represented as mean±SD of three independent replicates. (7C) A pseudo-colored composite of varying depths (0-500 μm) of Z-stacked images of live cells stained with calcein AM in 0.5% AcVES3-RGDV hydrogels on day 4 (scale bar=100 μm). […] (7D) Z-stack image of cytoskeleton organization in the hydrogels on day 4 with actin and nuclei (scale bar=100 μm) stained. (7E) Shear-thinned recovery of cells encapsulated in 0.5 wt % AcVES3-RGDV hydrogel after 3D culturing for 4 days. Hydrogels were shear-thinned at 1000% strain for 30 s (indicated by dashed line) every 10 min and allowed to recover by reducing the strain to 0.2%.
Rheology measurements of cell-encapsulating gels after 4 days of 3D cell culturing were performed using 8-mm stainless steel parallel plate geometry with a 0.5 mm gap height. A cell-encapsulating gel (100 μL) in a transwell insert (for 24 well plates, Corning) was transferred to the rheometer plate previously equilibrated at 37° C. and oil was placed around the sample. […]

[2] = tested on: human dermal fibroblasts (HDFs); test: 2D cell culture of HDFs on gel surfaces; type: cell-based; settings: for cell adhesion of HDFs on gel surface: Essential 8 Medium or serum-free DMEM
Method: 2D cell culture on peptide gels. Peptides were initially dissolved in water at 1 wt % on ice and mixed with an equal volume of ice-cold 2×HEPES buffer (50 mM HEPES, 300 mM NaCl, pH 7.4). The peptide solution (50 μL per well) was transferred to a non-tissue culture treated 96-well plates and incubated at 37° C. to initiate gelation. After 1 hour, HDFs (2×10^4 cells per 200 μL, per well) in serum-free DMEM, 10% FBS supplemented DMEM, or Essential 8 Medium (Thermo Fisher Scientific) were seeded on the peptide gels and cultured for 4 days. Bovine type I collagen gels (0.3 wt %, 50 μL per well) were prepared in 96-well plates following manufacturer's instructions.
Cell viability assay. Cell viability was evaluated by live and dead cell staining after 2D and 3D cell culture. Serum-free DMEM containing 1 μM calcein-AM and 2 μM ethidium homodimer-1 was added to the cells (200 μL per well for 2D culture and 500 μL each to the top and bottom of the gels for 3D culture). After incubation at 37° C. for 30 min, live and dead cells were visualized using EVOS FL Auto Cell Imaging System (Thermo Fisher Scientific). For the pseudo-colored composite image of varying heights of encapsulated cells, images of the live-stained cells were captured every 5 μm of height. Then Z-stack images for each 100 μm were flattened using the EVOS software, and the flattened images were pseudo-colored and merged using ImageJ.
Cell proliferation assay. A cell proliferation assay was performed using Cell Counting Kit-8 (CCK-8, Dojindo Molecular Technologies) for 2D and 3D cell culture. Serum-free DMEM containing 10% CCK-8 was added to the gels (200 μL per well for 2D culture; 500 μL to the top of the gels for 3D culture) and incubated for 2 hours at 37° C. Subsequently, media were transferred to 96-well plates (150 μL per well) and their absorbance measured at 450 nm relative to control viabilities from day 0 for 2D cell culture and day 1 for 3D cell culture. Experiments were performed in triplicate.
Cytoskeleton staining. For 2D cell culture, the peptide and collagen gels (70 μL) were prepared as described above on the glass bottom of 35 mm dishes (7 mm glass diameter, MatTek). HDFs in Essential 8 Medium (1.5×10^5 cells per 3 mL) were added to the dishes and incubated at 37° C. for 24 hours. Cells were fixed and permeabilized with 4% paraformaldehyde and 0.1% Triton X-100 in PBS for 15 min, and then blocked with 1% BSA in PBS. Cells were incubated with anti-vinculin antibody (hVIN-1, Sigma) for 1 hour at room temperature. Then, a goat anti-mouse IgG (H+L) cross-adsorbed secondary antibody, Rhodamine Red-X (2 μg mL^−1, Thermo Fisher Scientific), Alexa Fluor 488 phalloidin (5 units mL^−1, Thermo Fisher Scientific), and Hoechst 33342 (5 μg mL^−1, Invitrogen) in PBS were added to the dishes and incubated for 1 hour at room temperature. After washing, cells were visualized using an EVOS FL Auto Cell Imaging System.

SMILES: CC(=O)N[C@H](C(=O)N[C@@H](CCC(=O)O)C(=O)N[C@H](C(=O)N[C@@H](CO)C(=O)N[C@H](C(=O)N[C@@H](CO)C(=O)N[C@H](C(=O)N[C@@H](CCC(=O)O)C(=O)N[C@H](C(=O)N1CCC[C@@H]1C(=O)N1CCC[C@H]1C(=O)N[C@H](C(=O)N[C@@H](CCC(=O)O)C(=O)N[C@H](C(=O)N[C@@H](CO)C(=O)N[C@H](C(=O)N[C@@H](CCC(=O)O)C(=O)N[C@H](C(=O)N[C@@H](CCC(=O)O)C(=O)N[C@H](C(=O)NCC(=O)NCC(=O)NCC(=O)NCC(=O)N[C@@H](CCCNC(=N)N)C(=O)NCC(=O)N[C@@H](CC(=O)O)C(=O)N[C@H](C(N)=O)C(C)C)C(C)C)C(C)C)C(C)C)C(C)C)[C@@H](C)O)C(C)C)C(C)C)C(C)C)C(C)C)C(C)C [AcVES3-RGDV] (Ac-VEVSVSVEV[dP]PTEVSVEVEVGGGGRGDV-NH2)
- storage moduli after multiple physical disruptions [1]: constant
- cell proliferation of HDFs, 2D culture ([2]; Essential 8 Medium, up to day 4): proliferated to a similar degree as cells on collagen gels
- cytoskeleton organization and focal adhesions ([2]; day 1, Essential 8 Medium): promoted organization of actin stress fibers and focal contacts
- cell adhesion of HDFs on gel surface ([2]; day 1): strongly attached and spread
- cell adhesion of HDFs on gel surface ([2]; day 4): remained adherent and viable
